# Assay results taken from ChEMBL document CHEMBL4219200, “Beta-sitosterol and its derivatives repress lipopolysaccharide/d-galactosamine-induced acute hepatic injury by inhibiting the oxidation and inflammation in mice” (Bioorg Med Chem Lett, 2018).
# Active and inactive are the calls of the source. The calls are words filed in the database; no cut-off is given here.
# How the values were obtained:
# [1] = Solubility of the compound in water assessed as volume of solvent required to dissolve 1 g of compound; assay type: physicochemical; settings: buffer
# [2] = system: L02; assay: Cytotoxicity against human L02 cells up to 10 uM by MTT assay; assay type: cell-based
# [3] = system: Mus musculus; assay: Hepatoprotective activity against lipopolysaccharide/D-galactosamine-induced acute hepatic injury in mouse assessed as increase in survival rate at 50 mg/kg up to 24 hrs; assay type: functional, organism-based
# [4] = system: Mus musculus; assay: Hepatoprotective activity against lipopolysaccharide/D-galactosamine-induced acute hepatic injury in mouse assessed as inhibition of LPS/GalN-induced increase in MDA level in liver at 50 mg/kg; assay type: functional, organism-based
# [5] = system: Mus musculus; assay: Hepatoprotective activity against lipopolysaccharide/D-galactosamine-induced acute hepatic injury in mouse assessed as inhibition of TNFalpha mRNA level in liver at 12.5 to 50 mg/kg by RT-PCR analysis; assay type: functional, organism-based
# [6] = system: Mus musculus; assay: Hepatoprotective activity against lipopolysaccharide/D-galactosamine-induced acute hepatic injury in mouse assessed as increase in HO1 protein level in liver at 50 mg/kg by Western blot analysis; assay type: functional, organism-based
# [7] = system: Mus musculus; assay: Hepatoprotective activity against lipopolysaccharide/D-galactosamine-induced acute hepatic injury in mouse assessed as restoration of hepatic lobular structure at 50 mg/kg up to 24 hrs by microscopic method; assay type: functional, organism-based
# [8] = system: Mus musculus; assay: Hepatoprotective activity against lipopolysaccharide/D-galactosamine-induced acute hepatic injury in mouse assessed as inhibition of LPS/GalN-induced increase in TNFalpha level in serum at 12.5 to 50 mg/kg; assay type: functional, organism-based
# [9] = system: Mus musculus; assay: Hepatoprotective activity against lipopolysaccharide/D-galactosamine-induced acute hepatic injury in mouse assessed as increase in Nrf2 protein level in liver at 50 mg/kg by Western blot analysis; assay type: functional, organism-based
# [10] = system: Mus musculus; assay: Hepatoprotective activity against lipopolysaccharide/D-galactosamine-induced acute hepatic injury in mouse assessed as reduction in serum AST level at 50 mg/kg; assay type: functional, organism-based
# [11] = system: Mus musculus; assay: Hepatoprotective activity against lipopolysaccharide/D-galactosamine-induced acute hepatic injury in mouse assessed as inhibition of LPS/GalN-induced decrease in CAT level in liver at 50 mg/kg; assay type: functional, organism-based
# [12] = system: Mus musculus; assay: Hepatoprotective activity against lipopolysaccharide/D-galactosamine-induced acute hepatic injury in mouse assessed as inhibition of LPS/GalN-induced increase in IL-6 level in liver at 12.5 to 50 mg/kg; assay type: functional, organism-based
# [13] = system: Mus musculus; assay: Hepatoprotective activity against lipopolysaccharide/D-galactosamine-induced acute hepatic injury in mouse assessed as inhibition of LPS/GalN-induced increase in TNFalpha level in liver at 12.5 to 50 mg/kg; assay type: functional, organism-based
# [14] = system: Mus musculus; assay: Hepatoprotective activity against lipopolysaccharide/D-galactosamine-induced acute hepatic injury in mouse assessed as reduction in serum ALT level at 50 mg/kg; assay type: functional, organism-based
# [15] = system: Mus musculus; assay: Hepatoprotective activity against lipopolysaccharide/D-galactosamine-induced acute hepatic injury in mouse assessed as increase in Nrf2 mRNA level in liver at 12.5 to 50 mg/kg by RT-PCR analysis; assay type: functional, organism-based
# [16] = system: Mus musculus; assay: Hepatoprotective activity against lipopolysaccharide/D-galactosamine-induced acute hepatic injury in mouse assessed as inhibition of LPS/GalN-induced increase in IL-1beta level in serum at 12.5 to 50 mg/kg; assay type: functional, organism-based
# [17] = system: Mus musculus; assay: Hepatoprotective activity against lipopolysaccharide/D-galactosamine-induced acute hepatic injury in mouse assessed as inhibition of LPS/GalN-induced decrease in GSH level in liver at 50 mg/kg; assay type: functional, organism-based
# [18] = system: Mus musculus; assay: Hepatoprotective activity against lipopolysaccharide/D-galactosamine-induced acute hepatic injury in mouse assessed as inhibition of liver cell necrosis at 50 mg/kg up to 24 hrs by microscopic method; assay type: functional, organism-based
# [19] = system: Mus musculus; assay: Hepatoprotective activity against lipopolysaccharide/D-galactosamine-induced acute hepatic injury in mouse assessed as decrease in TLR4 protein level in liver at 12.5 to 50 mg/kg by Western blot analysis; assay type: functional, organism-based
# [20] = system: Mus musculus; assay: Hepatoprotective activity against lipopolysaccharide/D-galactosamine-induced acute hepatic injury in mouse assessed as increase in IkB protein level in liver at 50 mg/kg by Western blot analysis; assay type: functional, organism-based
# [21] = system: Mus musculus; assay: Hepatoprotective activity against lipopolysaccharide/D-galactosamine-induced acute hepatic injury in mouse assessed as inhibition of LPS/GalN-induced increase in IL-1beta level in liver at 12.5 to 50 mg/kg; assay type: functional, organism-based
# [22] = system: Mus musculus; assay: Hepatoprotective activity against lipopolysaccharide/D-galactosamine-induced acute hepatic injury in mouse assessed as decrease in NF-kB protein level in liver at 12.5 to 50 mg/kg by Western blot analysis; assay type: functional, organism-based
# [23] = system: Mus musculus; assay: Hepatoprotective activity against lipopolysaccharide/D-galactosamine-induced acute hepatic injury in mouse assessed as inhibition of LPS/GalN-induced increase in IL-6 level in serum at 12.5 to 50 mg/kg; assay type: functional, organism-based
# [24] = system: Mus musculus; assay: Hepatoprotective activity against lipopolysaccharide/D-galactosamine-induced acute hepatic injury in mouse assessed as inhibition of LPS/GalN-induced decrease in SOD level in liver at 50 mg/kg; assay type: functional, organism-based
# [25] = system: Mus musculus; assay: Hepatoprotective activity against lipopolysaccharide/D-galactosamine-induced acute hepatic injury in mouse assessed as inhibition of NFkB mRNA level in liver at 12.5 to 50 mg/kg by RT-PCR analysis; assay type: functional, organism-based
# [26] = system: Mus musculus; assay: Hepatoprotective activity against lipopolysaccharide/D-galactosamine-induced acute hepatic injury in mouse assessed as inhibition of Il-1beta mRNA level in liver at 12.5 to 50 mg/kg by RT-PCR analysis; assay type: functional, organism-based
structure (smiles),measurement,setting,value
CC[C@H](CC[C@@H](C)[C@H]1CC[C@H]2[C@@H]3CC=C4C[C@@H](OC(=O)c5ccco5)CC[C@]4(C)[C@H]3CC[C@]12C)C(C)C,solubility,[1],1000 to 10000 mL
same,Activity,[2],Non-Toxic
same,Activity,[3],Active
CC[C@H](CC[C@@H](C)[C@H]1CC[C@H]2[C@@H]3CC=C4C[C@@H](OC(=O)c5ccc6ccccc6c5)CC[C@]4(C)[C@H]3CC[C@]12C)C(C)C,inhibition,[4],Active
same,inhibition,[5],Active
same,Activity,[6],Active
same,Activity,[7],Active
same,inhibition,[8],Active
same,Activity,[9],Active
same,Activity,[10],Active
same,inhibition,[11],Active
same,solubility,[1],1000 to 10000 mL
same,inhibition,[12],Active
same,inhibition,[13],Active
same,Activity,[14],Active
same,Activity,[15],Active
same,inhibition,[16],Active
same,inhibition,[17],Active
same,inhibition,[18],Active
same,Activity,[19],Active
same,Activity,[2],Non-Toxic
same,Activity,[20],Active
same,Activity,[3],Active
same,inhibition,[21],Active
same,Activity,[22],Active
same,inhibition,[23],Active
same,inhibition,[24],Active
same,inhibition,[25],Active
same,inhibition,[26],Active
C/C=C/C=C/C(=O)O[C@H]1CC[C@@]2(C)C(=CC[C@H]3[C@@H]4CC[C@H]([C@H](C)CC[C@@H](CC)C(C)C)[C@@]4(C)CC[C@@H]32)C1,solubility,[1],1000 to 10000 mL
same,Activity,[2],Non-Toxic
same,Activity,[3],Active
CC[C@H](CC[C@@H](C)[C@H]1CC[C@H]2[C@@H]3CC=C4C[C@@H](OC(=O)c5ccccc5O)CC[C@]4(C)[C@H]3CC[C@]12C)C(C)C,solubility,[1],1000 to 10000 mL
same,Activity,[2],Non-Toxic
same,Activity,[3],Active
CC[C@H](CC[C@@H](C)[C@H]1CC[C@H]2[C@@H]3CC=C4C[C@@H](O)CC[C@]4(C)[C@H]3CC[C@]12C)C(C)C [BETA-SITOSTEROL],solubility,[1],<= 10000 ml
same,Activity,[3],Active
